Test results published in the supplement of paper PMC10307832.

What was measured:
Experiment in all cases: relative viability (nuclei count vs DMSO), 5 days (fraction); higher = more cells survive
[1] = compound: CC1=CN2C(=O)C=C(N=C2C(=C1)C(C)NC3=CC=CC=C3)N4CCOCC4 [TGX 221] + NC(=O)Nc1cc(-c2cccc(F)c2)sc1C(=O)N[C@H]1CCCNC1 [AZD7762] (partner 0.2 µM)
Method in brief: (§1)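 Lung cancer cell lines in 1536-well plates got either a single drug or a fixed anchor-drug dose together with five library-drug doses (not always all listed) in √10 steps, by pin tool, on the day after seeding. Nuclei were counted after 5 days, and relative viability is the treated-to-vehicle ratio of nuclei counts. Values are medians of duplicate plates.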

[2] = compound: CC1=CN2C(=O)C=C(N=C2C(=C1)C(C)NC3=CC=CC=C3)N4CCOCC4 [TGX 221] + CCNC(=O)c1noc(-c2cc(C(C)C)c(O)cc2O)c1-c1ccc(CN2CCOCC2)cc1 [Luminespib] (partner 0.01 µM)
Method in brief: as §1

[3] = compound: C1=CC=C(C(=C1)C2=CC=C(C=C2)C3=CSC4=C3C(=C(C(=O)N4)C#N)O)O + CC(=O)Nc1cccc(-n2c(=O)n(C3CC3)c(=O)c3c(Nc4ccc(I)cc4F)n(C)c(=O)c(C)c32)c1 [Trametinib] (partner 0.02 µM)
Method in brief: as §1

[4] = compound: C1=CC=C(C(=C1)C2=CC=C(C=C2)C3=CSC4=C3C(=C(C(=O)N4)C#N)O)O + Nc1nc2[nH]cc(CCc3ccc(C(=O)N[C@@H](CCC(=O)O)C(=O)O)cc3)c2c(=O)[nH]1 [Pemetrexed] (partner 0.2 µM)
Method in brief: as §1

Cell Line	relative viability ([1]; first compound 0.08 µM)	relative viability ([1]; first compound 0.253 µM)	relative viability ([1]; first compound 0.8 µM)	relative viability ([1]; first compound 2.53 µM)	relative viability ([1]; first compound 8 µM)	relative viability ([2]; first compound 0.08 µM)	relative viability ([2]; first compound 0.253 µM)	relative viability ([2]; first compound 0.8 µM)	relative viability ([2]; first compound 2.53 µM)	relative viability ([2]; first compound 8 µM)	relative viability ([3]; first compound 0.08 µM)	relative viability ([3]; first compound 0.253 µM)	relative viability ([3]; first compound 0.8 µM)	relative viability ([3]; first compound 2.53 µM)	relative viability ([3]; first compound 8 µM)	relative viability ([4]; first compound 0.08 µM)	relative viability ([4]; first compound 0.253 µM)	relative viability ([4]; first compound 0.8 µM)	relative viability ([4]; first compound 2.53 µM)	relative viability ([4]; first compound 8 µM)
NCI-H2342	0.421	0.448	0.496	0.489	0.524	0.919	0.652	0.584	0.544	0.607	0.754	0.88	0.794	0.681	0.68	0.769	0.938	0.713	0.755	0.712
SK-LU-1	–	–	–	–	–	0.189	0.191	0.201	0.205	0.181	0.412	0.408	0.505	0.476	0.426	0.933	0.943	0.918	1.03	0.806
NCI-H2023	–	–	–	–	–	0.711	0.555	0.685	0.603	0.386	0.364	0.584	0.708	0.535	0.466	0.188	0.296	0.368	0.208	0.323
LOU-NH91	0.73	0.758	0.746	0.789	0.714	0.332	0.358	0.323	0.317	0.31	0.778	0.865	0.794	0.753	0.705	0.386	0.337	0.399	0.384	0.406
LCLC-103H	0.789	0.762	0.771	0.707	0.731	1.01	0.988	1.02	0.806	0.763	0.729	0.618	0.682	0.632	0.62	0.51	0.453	0.431	0.456	0.519
SW 1573	–	–	–	–	–	0.211	0.353	0.247	0.221	0.278	0.608	0.522	0.654	0.659	0.434	0.61	0.982	0.788	0.851	0.728
NCI-H1755	0.338	0.391	0.399	0.409	0.371	0.441	0.65	0.33	0.394	0.258	0.758	0.775	0.8	0.862	0.797	0.463	0.469	0.545	0.439	0.714
COR-L 105	–	–	–	–	–	0.952	0.792	0.663	0.654	0.579	0.466	0.46	0.482	0.444	0.408	0.948	1.16	1.1	1.11	1.15
NCI-H1793	0.295	0.303	0.313	0.347	0.266	0.198	0.265	0.174	0.127	0.155	0.354	0.738	0.428	0.446	0.34	0.69	0.862	0.713	0.687	0.802
EMC-BAC-2	1.06	1.05	1.13	1.07	0.992	1.12	1.08	1.16	1.11	1.08	0.942	–	0.889	0.892	0.913	0.447	0.618	0.444	0.451	0.418
H3255	0.766	0.907	0.932	0.822	0.71	0.784	0.937	0.918	0.981	0.887	0.57	0.676	–	0.782	0.526	0.561	0.563	0.561	0.591	0.54
PC-14	0.316	0.329	0.34	0.33	0.289	0.146	0.135	0.138	0.133	0.151	0.758	0.925	0.912	0.792	0.623	0.151	0.156	0.153	0.125	0.146
NCI-H661	–	–	–	–	–	0.906	0.919	0.899	0.956	0.939	0.5	0.573	0.603	0.569	0.501	0.834	1	0.933	0.937	0.85
HARA	0.464	0.38	0.513	0.519	0.274	0.827	0.863	0.812	0.702	0.668	0.689	0.705	0.959	0.659	0.554	0.241	0.274	0.219	0.197	0.264
COR-L23	–	–	–	–	–	0.666	0.684	0.638	0.797	0.683	0.669	0.716	0.76	0.552	0.521	0.222	0.228	0.212	0.189	0.19
SK-MES-1	–	–	–	–	–	0.664	0.721	0.639	0.324	0.229	0.588	0.625	0.582	0.554	0.551	1.02	1.03	1.02	0.987	1.02
NCI-H1395	0.398	0.383	0.385	0.413	0.39	0.684	0.721	0.603	0.514	0.453	–	1.02	0.974	0.938	1.01	–	0.841	0.776	0.812	0.894
NCI-H2170	0.81	0.825	0.861	0.871	0.917	0.67	0.638	0.541	0.593	0.639	0.87	0.979	0.865	0.986	0.778	0.279	0.268	0.285	0.254	0.261
NCI-H647	0.324	0.448	0.407	0.278	0.328	0.186	0.164	0.263	0.17	0.118	–	0.422	0.57	0.493	0.25	–	0.18	0.16	0.17	0.189
CAL-12T	0.637	0.656	0.542	0.577	0.666	0.644	0.206	0.244	0.295	0.257	0.378	0.381	0.312	0.333	0.27	0.958	1.23	1.24	1.43	1.33

Cell Line	relative viability ([1]; first compound 0.08 µM)	relative viability ([1]; first compound 0.253 µM)	relative viability ([1]; first compound 0.8 µM)	relative viability ([1]; first compound 2.53 µM)	relative viability ([1]; first compound 8 µM)	relative viability ([2]; first compound 0.08 µM)	relative viability ([2]; first compound 0.253 µM)	relative viability ([2]; first compound 0.8 µM)	relative viability ([2]; first compound 2.53 µM)	relative viability ([2]; first compound 8 µM)	relative viability ([3]; first compound 0.08 µM)	relative viability ([3]; first compound 0.253 µM)	relative viability ([3]; first compound 0.8 µM)	relative viability ([3]; first compound 2.53 µM)	relative viability ([3]; first compound 8 µM)	relative viability ([4]; first compound 0.08 µM)	relative viability ([4]; first compound 0.253 µM)	relative viability ([4]; first compound 0.8 µM)	relative viability ([4]; first compound 2.53 µM)	relative viability ([4]; first compound 8 µM)
201T	0.55	0.685	0.611	0.615	0.569	1.09	1.04	1.13	0.979	0.871	0.734	0.744	0.737	0.734	0.832	0.354	0.331	0.358	0.353	0.298
HCC-366	0.325	0.202	0.242	0.0941	0.146	–	–	–	–	–	–	0.385	0.363	0.439	0.314	–	0.172	0.168	0.176	0.165
NCI-H1944	–	0.501	0.453	0.513	0.455	0.649	0.742	0.795	0.587	0.399	0.459	0.396	0.357	0.423	0.434	0.609	0.697	0.571	0.646	0.632
NCI-H1651	0.384	0.468	0.439	0.414	0.368	0.828	0.653	0.741	0.592	0.568	0.895	0.875	0.809	0.858	0.677	0.386	0.62	0.513	0.617	0.549
LCLC-97TM1	0.139	0.273	0.247	0.128	0.277	0.732	0.63	0.821	0.602	0.834	0.23	0.239	0.247	0.168	0.232	0.177	0.179	0.16	0.182	0.166
LC-2-ad	0.832	0.823	0.832	0.777	0.736	0.957	0.941	1.18	1.01	0.907	0.899	0.942	0.909	0.98	0.807	0.268	0.288	0.279	0.306	0.257
NCI-H2347	0.639	0.61	0.639	0.583	0.547	0.595	0.335	0.437	0.325	0.274	0.287	0.304	0.243	0.255	0.286	0.367	0.429	0.403	0.444	0.406
NCI-H2009	–	–	–	–	–	1.05	1.02	1.09	1.02	0.665	0.226	0.268	0.333	0.249	0.295	0.97	1.04	1.02	1.1	1.08
NCI-H1650	–	–	–	–	–	0.197	0.191	0.201	0.169	0.185	0.639	0.495	0.524	0.597	0.42	0.339	0.359	0.461	0.33	0.32
NCI-H1703	0.129	0.12	0.12	0.116	0.146	–	–	–	–	–	–	–	–	–	–	–	–	–	–	–
UMC-11	–	–	–	–	–	1.03	0.957	1.03	1.04	1.09	–	0.649	0.695	0.658	0.551	–	0.577	0.878	0.83	0.628
NCI-H2228	–	–	–	–	–	0.123	0.146	0.108	0.136	0.153	0.342	0.459	0.544	0.458	0.465	0.371	0.454	0.351	0.332	0.367
NCI-H1563	–	–	–	–	–	0.499	0.525	0.538	0.515	0.523	–	–	–	–	–	0.64	0.688	0.774	0.746	0.783
HCC-78	0.483	0.697	0.55	0.545	0.507	–	–	–	–	–	0.916	1.27	0.972	0.728	0.628	0.79	0.946	0.903	0.959	0.883
NCI-H520	–	–	–	–	–	0.23	0.196	0.188	0.205	0.211	0.5	0.733	0.779	0.613	0.443	0.484	0.676	0.804	0.705	0.608
NCI-H1623	–	–	–	–	–	0.427	0.457	0.471	0.463	0.438	–	–	–	–	–	–	–	–	–	–
NCI-H727	0.492	0.688	0.695	0.592	0.546	0.345	0.315	0.303	0.257	0.363	0.39	0.373	0.384	0.423	0.331	–	–	–	–	–
NCI-H1648	–	0.784	0.793	0.628	0.672	–	–	–	–	–	–	0.487	0.61	0.546	0.353	–	0.682	0.732	0.813	0.747
ABC-1	0.859	0.908	0.743	0.749	1.08	0.477	–	0.622	0.767	0.484	–	–	–	–	–	–	–	–	–	–
